Consider one molecule from article PMC5352362, “Molecular and functional evaluation of a novel HIF inhibitor, benzopyranyl 1,2,3-triazole compound” (Oncotarget, 2016).

Assay [1] deals with T1, HIF-1α (Homo sapiens, UniProt Q16665). The assay can be described thus: Western blot of HIF-1α protein in hypoxic A549 cells. It is filed as cell-based. The conditions noted are these: hypoxia 16 h.
Procedure: Next, we evaluated the inhibitory effects of the nine aforementioned test compounds on HIF-1α protein accumulation by western blot analyses in A549 cells experiencing hypoxic conditions.
Treatment was under hypoxic conditions for 16 h. Cells were then lysed for western blot analysis, which was conduced with antibodies against HIF-1α and β-actin. Expression levels were quantified by ImageJ (NIH, Bethesda, MO, USA) and graphed. **P < 0.01 versus 1% O2 DMSO (D)-treated control group.
(§1) (B, C) After HEK-293 cells (B) and A549 cells (C) were treated with Compound 12 (at concentrations of 0 nM, 0.1 nM, 1 nM, 10 nM, 100 nM, and 1000 nM) under hypoxic conditions for 16 h, expression of HIF-1α was determined by western blot analysis and then graphed. (D, E) Half maximal inhibitory concentration (IC50) values were calculated using GraphPad Prism software, using the quantified HIF-1α levels determined in B and C.
(§2) HEK-293 cells and A549 cells were treated with Compound 12, at 0.1–1000 nM concentrations, under hypoxic conditions for 16 h.
Proteins extracted from cells using PRO-PREP (iNtRon Biotech, South Korea) were separated by SDS-PAGE and transferred to a nitrocellulose membrane (Whatman, Maidstone, UK). Membranes were blocked with 5% skim milk in Tris-buffered saline (TBS) containing 0.1% Tween-20 for 30 min at room temperature (RT). After blocking, membranes were incubated with specific primary antibodies overnight at 4°C, followed by incubation with horseradish peroxidase-conjugated mouse- or rabbit-IgG for 1 h at RT. Antibody binding was detected using an enhanced chemiluminescence (ECL) kit (BioRad, Hercules, CA) according to the manufacturer's instructions. Primary antibodies against the following factors were used: HIF-1α (BD Biosciences, San Diego, CA, USA), HIF-1β (Cell Signaling Technology, Danvers, MA, USA), β-actin (Santa Cruz Biotechnology, Santa Cruz, CA, USA), hydroxylated-HIF-1α (P564) (Cell Signaling Technology, Danvers, MA, USA), and PHD2 (Abcam, Cambridge, UK).
The target of assay [2] is T1, HIF-1α. The assay can be described thus: Western blot of HIF-1α protein in hypoxic HEK-293 cells. Type of assay: cell-based. Particulars: HEK293, 1 nM, hypoxia 16 h, read-out: downregulation of HIF-1α protein expression. For orientation: Immunoblotting shows a protein as a band on a membrane.
Procedure: as §1, §2
Proteins extracted from cells using PRO-PREP (iNtRon Biotech, South Korea) were separated by SDS-PAGE and transferred to a nitrocellulose membrane (Whatman, Maidstone, UK). Membranes were blocked with 5% skim milk in Tris-buffered saline (TBS) containing 0.1% Tween-20 for 30 min at room temperature (RT). After blocking, membranes were incubated with specific primary antibodies overnight at 4°C, followed by incubation with horseradish peroxidase-conjugated mouse- or rabbit-IgG for 1 h at RT. Antibody binding was detected using an enhanced chemiluminescence (ECL) kit (BioRad, Hercules, CA) according to the manufacturer's instructions. […]
In assay [3] the test system is HIF-1α target genes (VEGF, ALDOC, CA9, GLUT1, CXCR4). The assay can be described thus: Semiquantitative RT-PCR of HIF-1α target genes in A549 cells. Type of assay: cell-based, human. The conditions noted are these: 1–100 nM, 16 h, hypoxia. From the text: As HIF-1α regulates transcription of its target genes, which are involved in angiogenesis, glucose metabolism, and metastasis in tumor progression, we determined the effects of Compound 12 on HIF-1 target gene expression at the mRNA level by semiquantitative RT-PCR. […] Thus, we checked secreted VEGF protein levels in culture media via ELISA.
Figure 5 Compound 12 suppressed HIF-1α target gene expression, and confirmation of in vitro results via determination of effects on angiogenesis in vivo (A) A549 cells were treated with Compound 12 (at concentrations of 0 nM, 1 nM, 10 nM, and 100 nM) for 16 h. The mRNA levels of HIF-1α target genes were determined by semiquantitative RT-PCR. β-actin was used as an internal control. D. DMSO vehicle control. N, normoxia; H, hypoxia. […] Media supernatant was collected, and secreted VEGF was determined by ELISA after removal of cellular debris. […] Cells that migrated through the membrane (8 μm pore size) were stained with hematoxylin and eosin, pictured as shown in upper panel, and counted (graph). *P < 0.05, **P < 0.01 versus VEGF-treated control. […] (F) Compound 12 (0.1 μg and 1 μg dosages) and retinoic acid (RA, positive control) were applied to the ED 4.5 CAM for two days, neovessel formation from the large vessels was observed, and percentages of positive angiogenic eggs (from total eggs tested) were calculated. […]

T1 sequence (Q16665 whole entry): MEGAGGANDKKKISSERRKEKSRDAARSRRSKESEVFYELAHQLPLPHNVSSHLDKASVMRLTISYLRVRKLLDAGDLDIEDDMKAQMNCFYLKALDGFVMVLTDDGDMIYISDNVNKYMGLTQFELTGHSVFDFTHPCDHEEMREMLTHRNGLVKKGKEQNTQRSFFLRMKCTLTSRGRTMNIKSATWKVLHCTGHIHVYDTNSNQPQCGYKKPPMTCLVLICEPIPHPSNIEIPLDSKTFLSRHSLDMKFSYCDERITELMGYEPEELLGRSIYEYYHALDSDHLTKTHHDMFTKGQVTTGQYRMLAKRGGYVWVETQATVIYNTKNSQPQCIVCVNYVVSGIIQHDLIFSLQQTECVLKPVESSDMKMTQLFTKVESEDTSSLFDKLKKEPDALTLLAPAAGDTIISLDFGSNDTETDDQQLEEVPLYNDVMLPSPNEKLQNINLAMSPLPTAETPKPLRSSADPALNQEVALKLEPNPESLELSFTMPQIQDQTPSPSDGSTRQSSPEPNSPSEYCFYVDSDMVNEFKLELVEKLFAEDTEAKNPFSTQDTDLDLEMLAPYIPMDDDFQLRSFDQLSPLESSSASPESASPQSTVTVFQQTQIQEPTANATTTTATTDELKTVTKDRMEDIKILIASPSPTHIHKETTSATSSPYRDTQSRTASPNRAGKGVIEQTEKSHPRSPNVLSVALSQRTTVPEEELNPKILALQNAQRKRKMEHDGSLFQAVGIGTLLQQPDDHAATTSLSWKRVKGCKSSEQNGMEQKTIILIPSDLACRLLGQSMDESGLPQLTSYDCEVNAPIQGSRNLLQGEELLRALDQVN

Regarding `COc1ccc(-c2cn(CC3(C)C=Cc4cc([N+](=O)[O-])ccc4O3)nn2)cc1` (centres unmarked) [Compound 12, 4-(4-methoxyphenyl)-1-((2-methyl-6-nitro-2H-chromen-2-yl)methyl)-1H-1,2,3-triazole], the inhibition at 0.001 µM in assay [1] (1 nM, read-out: downregulation of HIF-1α protein expression) is approximately 50%; in assay [2] it was approximately 30%. The “inhibitory effect on HIF-1α accumulation (western blot)” value in assay [1] (1 μM) was “most potent inhibitory effect”. Moreover, the inhibition at 1 µM in assay [1] (1 μM, compared to hypoxic control, read-out: reduction of HIF-1α protein levels) amounted to 80%. Besides, the “mRNA levels of VEGF, ALDOC, CA9, GLUT1 and CXCR4” value in assay [3] is given as “suppressed the mRNA levels”.
